From US10928381B2, “In vitro methods of monitoring autophagy in a human cell using a photoconvertable fluorescent protein linked biomarker” (The Regents of the University of Michigan, priority 2018, dated 2021)
Entries after “also recorded” stand apart in the source; their conditions may differ.

Tested on: Dendra2-LC3 HEK cells
Experiment: Optical pulse labeling: time-dependent decay of photoconverted (red, RFP/TRITC) Dendra2-LC3 as measure of autophagic flux
Format: cell-based, human
Set-up: key to Hit class in screen of Enzo Autophagy compound library (9H RFP/0H RFP): enhancer: [Sample9H RFP/OH RFP]<[DMSO9H RFP/OH RFP−3SDDMSO]; inhibitor: [Sample9H RFP/OH RFP]>[DMSO9H RFP/OH RFP 3SDDMSO]
Conditions: for Effect on torin1-induced Dendra2-LC3 degradation: co-treatment with torin1; for Effect on torin1-induced Dendra2-LC3 degradation / Degradation (decay) of photoconverted Dendra2-LC3: red channel; for Dose dependence of effect on Dendra2-LC3 decay: increasing concentrations, RFP and GFP channels; for Degradation (decay) of photoconverted Dendra2-LC3: vs DMSO, Torin1 1 uM, Bafilomycin-A1 10 nM
Experimental: FIGS. 8A-E. Time dependent decay of Dendra2-LC3 as an assay of autophagic flux. (FIG. 8A) Dendra2-LC3 reporter cells were imaged prior to photoconversion to measure background TRITC intensity. Immediately following photoconversion with a 5 second pulse of […] light, cells were treated with DMSO, 1 uM Torin1, or 10 nM Bafilomycin-A1 and then were subsequently imaged at the indicated time points. Images are psuedocolored to better highlight intensity differences. (FIGS. 8B-E) Time dependent changes in photoconverted Dendra2-LC3 fluorescence in the TRITC (FIGS. 8B, D) and GFP (FIGS. 8C, E) channels. Gray boxes represent the pre and post-photoconversion time points. TRITC intensity values are normalized, setting the background intensity prior to conversion to 0 and the post-conversion value to 1. GFP values are normalized to the pre-conversion intensity. Error bars represent the SEM from three replicate experiments. […] (FIG. 8C) Following photoconversion there is a 40% drop in GFP intensity. As new Dendra2-LC3 is synthesized, GFP levels return to pre-photoconversion levels over the span of 13.5 hours. […] Cells were transfected with 20 nM ATG5 siRNA two days prior to imaging.
FIG. 9A-C. Evaluating the efficacy of known autophagy modulators. (FIG. 9A) An unbiased screen of the Enzo Autophagy compound library identified several known autophagy compounds as hits providing construct validity to the assay. Rapamycin, NVP-BEZ235 and AKT inhibitor X, were among the compounds appropriately identified as enhancers while Bafilomycin registered as an inhibitor. […] Cells were imaged in RFP to measure background fluorescence, then photoconverted with a 4 second DAPI exposure and immediately imaged again to establish the postconversion intensity. Drugs from the Enzo Autophagy library were added at a concentration of 10 uM via a robotic liquid handler. 9 hours later the cells were imaged again in order to assess the efficacy of the drugs. Hits were defined as follows: enhancer: [Sample9H RFP/OH RFP]<[DMSO9H RFP/OH RFP−3SDDMSO], inhibitor: [Sample9H RFP/OH RFP]>[DMSO9H RFP/OH RFP 3SDDMSO]. […] Imaging of the compound library was repeated in GFP. Intensity values are reported 15 hours after drug treatment. (FIG. 9C) The reduction in Dendra2-LC3 half-life observed upon treatment of autophagic flux enhancers is attenuated with partial knockdown of ATG5. Cells were transfected with 20 nM ATG5 siRNA 2 days prior to imaging. Error bars represent SEM from three replicate experiments.
Experiments were conducted during development of embodiments herein to develop a sensitive method—optical pulse labeling (OPL)—that takes advantage of the photoconvertible fluorescent protein Dendra2 for estimations of autophagic flux in cellulo (Refs 14, 34; herein incorporated by reference in their entireties) (FIG. 1b). […] Dendra2 was fused to LC3, a specific marker of autophagosomes and itself an autophagy substrate (Refs. 27, 31; herein incorporated by reference in their entireties). Following photoconversion, the time-dependent reduction in red LC3-Dendra2 (FIG. 1c) is used to calculate protein half-life, representing an estimate of autophagy flux for individual cells (Refs. 14, 34; herein incorporated by reference in their entireties) Furthermore, because LC3 is degraded as autophagosomes mature, the return to steady-state levels of green Dendra2-LC3 after photoconversion (FIG. 1d) reflects activity within the pathway as a whole. The assay is noninvasive, permitting longitudinal analyses of autophagy kinetics in living cells, and amenable to HTS.
For these studies the potent mTOR inhibitor torin1 (Ref. 36; herein incorporated by reference in its entirety) was selected as a positive control for autophagy induction, and the vacuolar ATPase inhibitor bafilomycin-A1 (Ref. 37; herein incorporated by reference in its entirety) as a positive control for autophagy inhibition. In each case, DMSO served as a vehicle (negative) control. […]

SMILES	Hit class in screen of Enzo Autophagy compound library (9H RFP/0H RFP) (10 uM, 9 hours after drug addition)	Effect on torin1-induced Dendra2-LC3 degradation (listed as BafilomycinA1)	Effect on torin1-induced Dendra2-LC3 degradation (listed as bafilomycin-A1)	Dose dependence of effect on Dendra2-LC3 decay	Degradation (decay) of photoconverted Dendra2-LC3 (listed as bafilomycin)	Degradation (decay) of photoconverted Dendra2-LC3 (listed as bafilomycin-A1)	Degradation (decay) of photoconverted Dendra2-LC3
CO/C1=C\C(C)=C\[C@@H](C)[C@@H](O)[C@@H](C)C/C(C)=C/C=C/[C@H](OC)[C@@H]([C@@H](C)[C@@H](O)[C@H](C)[C@@]2(O)C[C@@H](O)[C@H](C)[C@@H](C(C)C)O2)OC1=O [Bafilomycin-A1, bafilomycin-A1]	inhibitor	blocks induction by torin1	completely blocked the effects of torin1	similar, tunable response	extends it	slowed its clearance	–
CCC(=O)N1CCN(c2ccc(-n3c(=O)ccc4cnc5ccc(-c6cnc7ccccc7c6)cc5c43)cc2C(F)(F)F)CC1 [Torin1, torin1]	–	–	–	increased in a dose dependent manner	–	–	significantly accelerates Dendra2-LC3 degradation; also recorded: accelerates decay; also recorded: significantly enhanced Dendra2-LC3 degradation
